Measurements as given in patent publication US20100113465A1, “7-AZASPIRO[3.5]NONANE-7-CARBOXAMIDE COMPOUNDS” (Pfizer Inc., priority 2008, published 2010).

Tests used:
Male Sprague-Dawley Rats = test: In vivo Complete Freund's Adjuvant (CFA) efficacy assay; set-up: species or system rat; key: (+) indicates the test compound was determined to be efficacious at 3 mpk, oral dosing; (−) indicates the test compound was determined to not be efficacious at 3 mpk, oral dosing; details: 3 mpk, oral dosing; inhibition of allodynia (PWT) four hours postdose vs vehicle, p<0.05
Experimental: For additional information on the CFA efficacy assay, see Jayamanne et al., Brit. J. Pharmacol. 2006, 147, 281-288. Experiments were performed on adult Male Sprague-Dawley Rats (200 g-250 g). Inflammation was induced in the left hindpaw of the rat by an intra-plantar injection of 150 uL Complete Freund's Adjuvant (CFA) (SIGMA F5881). The CFA injection immediately induces local inflammation, paw swelling, and pain that persists for at least two weeks post-injection. Baseline paw withdrawal threshold (PWT) was measured to determine the percent inhibition of allodynia using a set of Von Frey Hairs on day 4 post injection as illustrated by the Dixon Up and Down Method (W. J. Dixon, Ann. Rev. Pharmacol. Toxicol. 1980, 20:441-462). […] Test compound was administered at a concentration of 3 mg/kg (mpk) orally with the dosing vehicle 5% N,N′-Dimethylacetamide (SIGMA D137510) and 95% (40% 2-hydroxypropyl-beta-cyclodextrin in water) (SIGMA H107). Following Dose administration PWT threshold was evaluated again at four hours postdose. The Sprague-Dawley rats used in this assay were purchased from Harlan, 8520 Allison Pointe Blvd., Indianapolis, Ind., 46250, U.S.A. Sprague-Dawley rats are an outbred breed of albino rats first produced by the Sprague Dawley farms in Madison, Wis., U.S.A.
Percent Inhibition of Allodynia was determined by the formula: […]
ΔPWT measurements were averaged for each treatment group and statistical comparisons between groups were made using ANOVA and Dunnett's two-tailed test. […]

rat FAAH = biological target: T1, rat FAAH (Rattus norvegicus, UniProt P97612); test: FAAH assay, rat FAAH enzyme inhibition (kinact/Ki); type: biochemical; details: oleamide substrate 50 μM, 30° C., read-out: rFAAH kinact/Ki
T1 construct: made in house; host or cells: E. coli
T1 sequence (P97612 1-579): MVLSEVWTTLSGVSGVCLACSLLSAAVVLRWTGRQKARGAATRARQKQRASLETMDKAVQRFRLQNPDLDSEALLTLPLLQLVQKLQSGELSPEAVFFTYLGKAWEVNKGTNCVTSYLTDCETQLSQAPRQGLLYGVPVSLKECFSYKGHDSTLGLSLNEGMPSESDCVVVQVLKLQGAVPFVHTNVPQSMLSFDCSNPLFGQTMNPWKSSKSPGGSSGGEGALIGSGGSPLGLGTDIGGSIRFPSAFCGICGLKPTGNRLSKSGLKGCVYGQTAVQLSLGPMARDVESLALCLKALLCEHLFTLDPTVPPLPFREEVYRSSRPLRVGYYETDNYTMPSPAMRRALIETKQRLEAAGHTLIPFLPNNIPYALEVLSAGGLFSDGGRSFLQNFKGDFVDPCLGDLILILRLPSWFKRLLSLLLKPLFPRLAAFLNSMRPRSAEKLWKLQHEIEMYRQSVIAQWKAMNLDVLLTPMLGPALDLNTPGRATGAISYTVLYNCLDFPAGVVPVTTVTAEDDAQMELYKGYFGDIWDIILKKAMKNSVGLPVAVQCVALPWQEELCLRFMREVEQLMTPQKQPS
Experimental: (§1) The FAAH assay was carried out in 384-well clear polystyrene plates (Evergreen Scientific) in a total volume of 50 μl per well in a manner similar to that described by Mileni et al., Proc. Nat. Acad. Sci. 2008, 105, 12820-12824. All percents are by volume. Serial dilutions of compound were initially prepared in 100% DMSO, and then diluted two-fold into HPLC-grade H2O to give 50% DMSO. To each well, was placed the reaction mixture (40 μl) containing 1-4 nM FAAH, 50 mM NaPi, pH 7.4, 3 mM α-ketoglutarate, 0.15 mM NADH, 7.5 U/ml glutamate dehydrogenase, 2 mM ADP, 1 mM EDTA, and 0.1% Triton X-100 (The concentration shown for each component is the final concentration in the assay). To this mixture, was added 5 μl of a compound of Examples 1 to 56 at various concentrations in 50% DMSO (or 5 μl 50% DMSO for controls). This was immediately followed by the addition of 5 μl oleamide (500 μM) dissolved in 75% EtOH/25% DMSO and the reaction mixture was mixed for 1.5 min. The final concentrations of DMSO and EtOH in the assay were each 7.5%. The reactions were incubated at 30° C. and the absorbance at 340 nm was collected over a period of 90 min with readings taken in 30-second intervals using SpectraMax Plus^384 Microplate Spectrophotometer (Molecular Devices, Sunnyvale, Calif.). The human FAAH and rat FAAH used in the assay was prepared as described in the patent application WO 2006/067613 using wild-type E. coli cells transformed in St. Louis, Mo., U.S.A. The purity of the enzyme was greater than 98% based on an analysis by SDS-polyacrylamide gel electrophoresis followed by Coomassie Blue staining.
(§2) Reaction progress curves were corrected for the non-enzymatic oxidation of NADH by subtraction of absorbancies at each time point obtained from control reactions containing no FAAH enzyme. The loss of enzyme activity as a function of time is well-described by the following mathematical equation (1) for a mono-exponential decay: […]
(§3) where At represents the absorbance at time t, A0 represents the absorbance at time zero, and C represents a constant. Observed rates of enzyme inactivation (kobs) were determined from the non-linear reaction progress curves by fitting the corrected absorbancies to an equation for a mono-exponential decay using the third-party Microsoft Excel plug-in, XLfit (IDBS Limited). Secondary plots of kobs vs. inhibitor concentration were prepared from kobs values obtained from progress curves. Second-order rates for enzyme inactivation, expressed as kinact/Ki (M^−1s^−1), were calculated from the slopes from linear regression analysis of the secondary plot of kobs vs. inhibitor concentration as defined in following equation (2), where [I]<<Ki:
(§4) The concentration of substrate in the assay was equal to the Km for oleamide of 50 μM. Therefore, reported kinact/Ki values are obtained by multiplying resulting slopes by a factor of two (i.e. slope=kinact/(Ki*2)).

human FAAH = biological target: T2, human FAAH (Homo sapiens, UniProt O00519); test: FAAH assay, human FAAH enzyme inhibition (kinact/Ki); type: biochemical; details: oleamide substrate 50 μM, 30° C., read-out: hFAAH kinact/Ki
T2 construct: made in house; host or cells: E. coli
T2 sequence (O00519 1-579): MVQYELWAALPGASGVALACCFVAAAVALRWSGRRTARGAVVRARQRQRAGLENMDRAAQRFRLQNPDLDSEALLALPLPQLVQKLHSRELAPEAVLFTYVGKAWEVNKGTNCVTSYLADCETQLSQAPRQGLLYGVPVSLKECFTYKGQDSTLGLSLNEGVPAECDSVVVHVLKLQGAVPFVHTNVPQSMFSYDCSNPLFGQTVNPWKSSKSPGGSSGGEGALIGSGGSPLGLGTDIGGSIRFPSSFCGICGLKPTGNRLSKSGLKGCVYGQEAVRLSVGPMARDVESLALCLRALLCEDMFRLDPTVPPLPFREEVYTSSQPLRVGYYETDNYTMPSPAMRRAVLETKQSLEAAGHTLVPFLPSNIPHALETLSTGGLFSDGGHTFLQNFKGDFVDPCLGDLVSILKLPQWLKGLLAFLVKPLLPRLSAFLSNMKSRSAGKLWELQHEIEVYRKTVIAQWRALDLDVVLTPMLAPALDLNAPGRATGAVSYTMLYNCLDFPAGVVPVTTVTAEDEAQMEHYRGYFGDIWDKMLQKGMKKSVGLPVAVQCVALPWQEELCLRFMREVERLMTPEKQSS
Experimental: as §1, §2, §3, §4

| SMILES | kinact/KI (rat FAAH) [M⁻¹ s⁻¹] | kinact/KI (human FAAH) [M⁻¹ s⁻¹] | CFA Efficacy (Male Sprague-Dawley Rats) |
| --- | --- | --- | --- |
| Cn1nnnc1NC(=O)N1CCC2(CC1)CC(c1cccc(C(F)(F)F)c1F)C2 [Example 47, 2-[2-fluoro-3-(trifluoromethyl)phenyl]-N-(1-methyl-1H-tetrazol-5-yl)-7-azaspiro[3.5]nonane-7-carboxamide] | 3330 | 15400 | (+) |
| Cn1nnnc1NC(=O)N1CCC2(CC1)CC(F)(c1cccc(OC(F)(F)F)c1)C2 [Example 53, 2-fluoro-N-(1-methyl-1H-tetrazol-5-yl)-2-[3-(trifluoromethoxy)phenyl]-7-azaspiro[3.5]nonane-7-carboxamide] | 1920 | 13900 | (+) |
| CCc1noc(NC(=O)N2CCC3(CC2)CC(c2cccc(OC(F)(F)F)c2)C3)c1C [Example 34, N-(3-ethyl-4-methylisoxazol-5-yl)-2-[3-(trifluoromethoxy)phenyl]-7-azaspiro[3.5]nonane-7-carboxamide] | 1660 | 1650 | (+) |
| Cc1noc(NC(=O)N2CCC3(CC2)CC(c2cccc(OC(F)(F)F)c2)C3)c1C [Example 4, N-(3,4-dimethylisoxazol-5-yl)-2-[3-(trifluoromethoxy)phenyl]-7-azaspiro[3.5]nonane-7-carboxamide] | 3860 | 2830 | (+) |
| Cc1noc(NC(=O)N2CCC3(CC2)CC(c2cccc(F)c2F)C3)c1C [Example 19, 2-(2,3-difluorophenyl)-N-(3,4-dimethylisoxazol-5-yl)-7-azaspiro[3.5]nonane-7-carboxamide] | 1370 | 2350 | (+) |
| Cc1noc(NC(=O)N2CCC3(CC2)CC(c2csc(-c4cccc(C(F)(F)F)c4)n2)C3)c1C [Example 36, N-(3,4-dimethylisoxazol-5-yl)-2-{2-[3-(trifluoromethyl)phenyl]-1,3-thiazol-4-yl}-7-azaspiro[3.5]nonane-7-carboxamide] | 1160 | 2030 | (+) |
| Cc1noc(NC(=O)N2CCC3(CC2)CC(c2ccc(F)c(Cl)c2)C3)c1C [Example 14, 2-(3-chloro-4-fluorophenyl)-N-(3,4-dimethylisoxazol-5-yl)-7-azaspiro[3.5]nonane-7-carboxamide] | 5820 | 4190 | (+) |
| Cc1noc(NC(=O)N2CCC3(CC2)CC(c2cc(Cl)ccc2F)C3)c1C [Example 21, 2-(5-chloro-2-fluorophenyl)-N-(3,4-dimethylisoxazol-5-yl)-7-azaspiro[3.5]nonane-7-carboxamide] | 1510 | 2700 | (+) |

Continued, in another order:

| kinact/KI (rat FAAH) [M⁻¹ s⁻¹] | kinact/KI (human FAAH) [M⁻¹ s⁻¹] | SMILES | CFA Efficacy (Male Sprague-Dawley Rats) |
| --- | --- | --- | --- |
| 1060 | 2220 | Cc1noc(NC(=O)N2CCC3(CC2)CC(c2cccc4c2OC(F)(F)O4)C3)c1C [Example 28, 2-(2,2-difluoro-1,3-benzodioxol-4-yl)-N-(3,4-dimethylisoxazol-5-yl)-7-azaspiro[3.5]nonane-7-carboxamide] | (+) |
| 4570 | 13200 | Cn1nnnc1NC(=O)N1CCC2(CC1)CC(c1cccc(OC(F)(F)F)c1)C2 [Example 45, N-(1-methyl-1H-tetrazol-5-yl)-2-[3-(trifluoromethoxy)phenyl]-7-azaspiro[3.5]nonane-7-carboxamide] | (+) |
| 1730 | 3460 | Cc1noc(NC(=O)N2CCC3(CC2)CC(c2noc(-c4ccc(OC(F)(F)F)cc4)n2)C3)c1C [Example 15, N-(3,4-dimethylisoxazol-5-yl)-2-{5-[4-(trifluoromethoxy)phenyl]-1,2,4-oxadiazol-3-yl}-7-azaspiro[3.5]nonane-7-carboxamide] | (+) |
| 1560 | 2640 | Cc1cc(F)cc(C2CC3(CCN(C(=O)Nc4onc(C)c4C)CC3)C2)c1 [Example 18, N-(3,4-dimethylisoxazol-5-yl)-2-(3-fluoro-5-methylphenyl)-7-azaspiro[3.5]nonane-7-carboxamide] | (−) |
| 1320 | 2830 | Cc1noc(NC(=O)N2CCC3(CC2)CC(F)(c2cccc(Cl)c2)C3)c1C [Example 32, 2-(3-chlorophenyl)-N-(3,4-dimethylisoxazol-5-yl)-2-fluoro-7-azaspiro[3.5]nonane-7-carboxamide] | (+) |
| 3420 | 6940 | CCn1nnnc1NC(=O)N1CCC2(CC1)CC(c1cccc(OC(F)(F)F)c1)C2 [Example 52, N-(1-ethyl-1H-tetrazol-5-yl)-2-[3-(trifluoromethoxy)phenyl]-7-azaspiro[3.5]nonane-7-carboxamide] | – |
| 1340 | 945 | Cc1noc(NC(=O)N2CCC3(CC2)CC(O)(c2ccc(F)c(Cl)c2)C3)c1C [Example 44, 2-(3-chloro-4-fluorophenyl)-N-(3,4-dimethylisoxazol-5-yl)-2-hydroxy-7-azaspiro[3.5]nonane-7-carboxamide] | – |
